Data from patent US20250122181A1, “BENZIMIDAZOLES AS MODULATORS OF IL-17” (Janssen Pharmaceutica NV, priority 2021, published 2025).

Tests used:
[1] = biological target: T1, IL-17A(FLAG-Tagged): IL-17RA(His-Tagged) (Homo sapiens, UniProt Q16552, K93Q); assay: IL-17A(FLAG-Tagged): IL-17RA(His-Tagged) Binding Disruption Eu-HTRF Assay, Protocol 2; details: Protocol 2, FLAG tagged IL-17A 1 nM; simple average if tested more than once
From the text: An antibody directed against the FLAG tag of IL-17A (SEQ ID NO: 1) is labeled with the HTRF donor chromophore (Europium-cryptate). IL-17A is present as a dimer that is “locked into” this quaternary structure due to the formation of loop-spanning […] disulfide bridges. The construct of IL-17RA used in the assay excludes the […] portion of the receptor and is fused to a C-terminal 10×His tag (SEQ ID NO:2). An antibody directed against the His tag of the IL-17RA chimera is labeled with the HTRF acceptor chromophore (“D2”). The fluorescence-resonance energy transfer (FRET) depends on the vicinity of the donor chromophore to the acceptor, and interruption of the binding between the IL-17A and IL-17RA causes the reduction/loss of FRET. Therefore, this assay allows to evaluate the compound effect on the binding IL-17A and IL-17RA by monitoring the fluorescence intensity of donor vs acceptor. The assay was run using either Protocol 1 or Protocol 2 as described below.
Protocol 2. 40 nl of 2-fold serial diluted compound solution for total 22 dilution points is added into each well of a 1536-well, white, low-volume, non-binding plate (Greiner #782904), then 2 μl of FLAG tagged IL-17A at 2× final concentration (1 nM) in solution of PBS+0.01% Triton-X100 is added to each well. The assay plate is briefly centrifuged then incubated for 1 h at rt. A mixed solution is prepared containing 2×5 nM 10HIS×IL-17RA, 2×2.5 nM Eu-anti-FLAG (CISBIO), 2×5 nM D2-anti-HIS (CISBIO) in PBS+0.01% Triton-X100+200 mM Potassium Fluoride (Sigma 60238) and 2 μl of mix is added to each well of the assay plate. The plate is briefly centrifuged then incubated for 2 h at rt. The HTRF intensities at the wavelength of donor (615 nm) and acceptor (665 nm) are measured using BMG Pherastar. The ratio between intensities at two wavelengths is calculated and plotted against the compound concentration and the data is fitted to a one-site competition model to yield IC50 of the compound.

[2] = tested on: IL-17A-induced G-CSF production in human normal keratinocyte (NHK); assay: NHK Assay: IL-17A-induced G-CSF production in human normal keratinocyte; assay type: cell-based; details: 24 h, IL-17A 5 ng/mL, simple average if tested more than once
Outline: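 Compound titrations are first mixed with recombinant human IL-17A for 1 h at room temperature. The mixture goes onto adult normal human keratinocytes (final IL-17A 5 ng/mL, 5% FBS, 0.2% DMSO) for 24 h at 37 °C. Secreted G-CSF is then measured by HTRF and IC50 fitted.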

[3] = biological target: T1, IL-17A(FLAG-Tagged): IL-17RA(His-Tagged); assay: IL-17A(FLAG-Tagged): IL-17RA(His-Tagged) Binding Disruption Eu-HTRF Assay, Protocol 1; details: Protocol 1, FLAG tagged IL-17A 2.5 nM; simple average if tested more than once
Outline: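 IC50 came from a one-site competition fit of the acceptor/donor (665/620 nm) HTRF ratio. His-tagged IL-17RA, Eu-anti-FLAG and D2-anti-His were added after a 1 h rt compound preincubation with FLAG-tagged IL-17A dimer in PBS/0.01% Triton X-100, followed by 2 h at rt before reading.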

T1 sequence (Q16552 with tags, fused parts or gaps K93Q): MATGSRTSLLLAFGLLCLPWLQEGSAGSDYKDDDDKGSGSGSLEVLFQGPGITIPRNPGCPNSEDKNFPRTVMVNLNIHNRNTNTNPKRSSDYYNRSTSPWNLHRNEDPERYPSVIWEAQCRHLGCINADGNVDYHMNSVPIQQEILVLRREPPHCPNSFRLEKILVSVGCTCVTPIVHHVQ

Row | SMILES | IC50 [1] [µM] | IC50 ([2]; Homo sapiens, Keratinocyte) [µM] | IC50 [3] [µM] | IC50 [2] [µM]
1 | C[C@@H](OC1CC1)[C@H](NC(=O)c1nonc1C1CC1)c1nc2cc([C@@H](COC3CC3)N3CC(F)(F)CNC3=O)ccc2[nH]1 [Example 71, N-((1R,2R)-2-Cyclopropoxy-1-(5-((S)-2-cyclopropoxy-1-(5,5-difluoro-2-oxotetrahydropyrimidin-1(2H)-yl)ethyl)-1H-benzo[d]imidazol-2-yl)propyl)-4-cyclopropyl-1,2,5-oxadiazole-3-carboxamide] | < 0.05 | < 0.05 |  | 
2 | C[C@H](c1ccc2[nH]c(C(COC(C)(C)C(F)(F)F)NC(=O)c3nonc3C3CC3)nc2c1)N1C[C@@H](C(F)(F)F)NC1=O (single isomer, unassigned) [Example 7, 4-Cyclopropyl-N—((R*)-1-(5-((R)-1-((S)-2-oxo-4-(trifluoromethyl)imidazolidin-1-yl)ethyl)-1H-benzo[d]imidazol-2-yl)-2-((1,1,1-trifluoro-2-methylpropan-2-yl)oxy)ethyl)-1,2,5-oxadiazole-3-carboxamide] | < 0.05 | < 0.05 | < 0.05 | 
3 | COC[C@H](c1ccc2nc(C(NC(=O)c3nonc3C)[C@@H](C)O[C@H](C)C(F)(F)F)[nH]c2c1F)N1C[C@@H](C(F)(F)F)NC1=O (single isomer, unassigned) [Example 97, N-((1R*,2R)-1-(7-Fluoro-6-((S)-2-methoxy-1-((S)-2-oxo-4-(trifluoromethyl)imidazolidin-1-yl)ethyl)-1H-benzo[d]imidazol-2-yl)-2-(((R)-1,1,1-trifluoropropan-2-yl)oxy)propyl)-4-methyl-1,2,5-oxadiazole-3-carboxamide] | < 0.05 |  |  | < 0.05
4 | Cc1nonc1C(=O)N[C@H](c1nc2cc([C@@H](COC3CC3)N3C[C@@H](C(F)(F)F)NC3=O)ccc2[nH]1)[C@@H](C)OC1CC1 [Example 70, N-((1R,2R)-2-Cyclopropoxy-1-(5-((S)-2-cyclopropoxy-1-((S)-2-oxo-4-(trifluoromethyl)imidazolidin-1-yl)ethyl)-1H-benzo[d]imidazol-2-yl)propyl)-4-methyl-1,2,5-oxadiazole-3-carboxamide] | < 0.05 | < 0.05 |  | 
5 | [2H]C1([2H])[C@H](C(F)(F)F)NC(=O)N1[C@H](COC)c1ccc2[nH]c([C@H](COC(C)(C)C(F)(F)F)NC(=O)c3nonc3C)nc2c1 (relative stereo) [Example 54, N—((R*)-1-(5-((S)-2-methoxy-1-((R*)-2-oxo-4-(trifluoromethyl)imidazolidin-1-yl-5,5-d2)ethyl)-1H-benzo[d]imidazol-2-yl)-2-((1,1,1-trifluoro-2-methylpropan-2-yl)oxy)ethyl)-4-methyl-1,2,5-oxadiazole-3-carboxamide] | < 0.05 | < 0.05 | < 0.05 | 
6 | Cc1nonc1C(=O)N[C@@H](COC(C)(C)C(F)(F)F)c1nc2cc([C@@H](C3CC3)N3C[C@@H](C(C)C)NC3=O)ccc2[nH]1 [Example 83, N—((R)-1-(5-((R)-Cyclopropyl((R)-4-isopropyl-2-oxoimidazolidin-1-yl)methyl)-1H-benzo[d]imidazol-2-yl)-2-((1,1,1-trifluoro-2-methylpropan-2-yl)oxy)ethyl)-4-methyl-1,2,5-oxadiazole-3-carboxamide] | < 0.05 | < 0.05 | < 0.05 | 
7 | CC(C)(OC[C@H](NC(=O)c1nonc1C1CC1)c1nc2cc(CN3C[C@@H](C(F)(F)F)NC3=O)ccc2[nH]1)C(F)(F)F (single isomer, unassigned) [Example 17] | < 0.05 | < 0.05 | < 0.05 | 
8 | COC[C@H](c1ccc2nc(C(NC(=O)c3nonc3C)[C@@H](C)O[C@H](C)C(F)(F)F)[nH]c2c1F)N1C[C@@H](C(F)(F)F)NC1=O (single isomer, unassigned) [Example 96, N-((1S*,2R)-1-(7-Fluoro-6-((S)-2-methoxy-1-((S)-2-oxo-4-(trifluoromethyl)imidazolidin-1-yl)ethyl)-1H-benzo[d]imidazol-2-yl)-2-(((R)-1,1,1-trifluoropropan-2-yl)oxy)propyl)-4-methyl-1,2,5-oxadiazole-3-carboxamide] | 0.05 to 0.1 | < 0.05 |  | 
9 | CC(C)n1nccc1C(=O)NC(c1nc2nc([C@@H](C3CC3)N3CC(F)(F)CNC3=O)ccc2[nH]1)[C@@H](C)O[C@H](C)C(F)(F)F (single isomer, unassigned) [Example 75, N-((1R*,2R)-1-(5-((R)-Cyclopropyl(5,5-difluoro-2-oxotetrahydropyrimidin-1(2H)-yl)methyl)-1H-imidazo[4,5-b]pyridin-2-yl)-2-(((R)-1,1,1-trifluoropropan-2-yl)oxy)propyl)-1-isopropyl-1H-pyrazole-5-carboxamide] | > 0.1 | < 0.05 | > 0.1 | 
10 | COC[C@H](c1ccc2nc(C(NC(=O)c3nonc3C3CC3)[C@@H](C)O[C@H](C)C(F)(F)F)[nH]c2c1F)N1C[C@@H](C(F)(F)F)NC1=O (single isomer, unassigned) [Example 94, 4-Cyclopropyl-N-((1S*,2R)-1-(7-fluoro-6-((S)-2-methoxy-1-((S)-2-oxo-4-(trifluoromethyl)imidazolidin-1-yl)ethyl)-1H-benzo[d]imidazol-2-yl)-2-(((R)-1,1,1-trifluoropropan-2-yl)oxy)propyl)-1,2,5-oxadiazole-3-carboxamide] | < 0.05 | < 0.05 |  | 
11 | Cc1nonc1C(=O)N[C@H](c1nc2cc([C@@H](COC3CC3)N3CC(F)(F)CNC3=O)ccc2[nH]1)[C@@H](C)OC1CC1 [Example 73, N-((1R,2R)-2-Cyclopropoxy-1-(5-((S)-2-cyclopropoxy-1-(5,5-difluoro-2-oxotetrahydropyrimidin-1(2H)-yl)ethyl)-1H-benzo[d]imidazol-2-yl)propyl)-4-methyl-1,2,5-oxadiazole-3-carboxamide] | < 0.05 | < 0.05 |  | 
12 | C[C@@H](OC1CC1)[C@H](NC(=O)c1nonc1C1CC1)c1nc2cc([C@@H](COC3CC3)N3C[C@@H](C(F)(F)F)NC3=O)ccc2[nH]1 [Example 69, N-((1R,2R)-2-Cyclopropoxy-1-(5-((S)-2-cyclopropoxy-1-((S)-2-oxo-4-(trifluoromethyl)imidazolidin-1-yl)ethyl)-1H-benzo[d]imidazol-2-yl)propyl)-4-cyclopropyl-1,2,5-oxadiazole-3-carboxamide] | < 0.05 | < 0.05 |  | 
13 | COC[C@H](c1ccc2nc(C(NC(=O)c3nonc3C3CC3)[C@@H](C)O[C@H](C)C(F)(F)F)[nH]c2c1F)N1C[C@@H](C(F)(F)F)NC1=O (single isomer, unassigned) [Example 95, 4-Cyclopropyl-N-((1R*,2R)-1-(7-fluoro-6-((S)-2-methoxy-1-((S)-2-oxo-4-(trifluoromethyl)imidazolidin-1-yl)ethyl)-1H-benzo[d]imidazol-2-yl)-2-(((R)-1,1,1-trifluoropropan-2-yl)oxy)propyl)-1,2,5-oxadiazole-3-carboxamide] | < 0.05 |  |  | < 0.05
14 | CC(C)n1ncc(F)c1C(=O)N[C@H](c1nc2cc([C@@H](COC3CC3)N3CC(F)(F)CNC3=O)ccc2[nH]1)[C@@H](C)OC1CC1 [Example 72, N-((1R,2R)-2-Cyclopropoxy-1-(5-((S)-2-cyclopropoxy-1-(5,5-difluoro-2-oxotetrahydropyrimidin-1(2H)-yl)ethyl)-1H-benzo[d]imidazol-2-yl)propyl)-4-fluoro-1-isopropyl-1H-pyrazole-5-carboxamide] | < 0.05 | 0.05 to 0.1 |  | 
15 | COC[C@H](c1ccc2[nH]c(C(NC(=O)c3nonc3C)[C@@H](C)OC(C)(C)C(F)(F)F)nc2c1)N1C[C@@H](C(F)(F)F)NC1=O (single isomer, unassigned) [Example 74, N-[(1R*,2R)-1-[5-[(1S)-2-Methoxy-1-[(4S)-2-oxo-4-(trifluoromethyl)imidazolidin-1-yl]ethyl]-1H-benzimidazol-2-yl]-2-(2,2,2-trifluoro-1,1-dimethyl-ethoxy)propyl]-4-methyl-1,2,5-oxadiazole-3-carboxamide] | < 0.05 | < 0.05 |  | 
